Measured values published in patent US8138168B1 (Takeda Pharmaceutical Company Limited, priority 2007, dated 2012).

biological target: T1, Recombinant human renin (Homo sapiens, UniProt P00797); assay: In vitro enzymatic activity assay of renin inhibitors (fluorogenic peptide substrate); assay type: biochemical; details: read-out: IC50 of Exemplified Compounds Against Renin
T1 construct: isolate the active form (residues 67-406); made in house; host or cells: FreeStyle 293-F cells (transient expression of pcDNA3.1(+)/hREN)
T1 sequence (P00797 67-406): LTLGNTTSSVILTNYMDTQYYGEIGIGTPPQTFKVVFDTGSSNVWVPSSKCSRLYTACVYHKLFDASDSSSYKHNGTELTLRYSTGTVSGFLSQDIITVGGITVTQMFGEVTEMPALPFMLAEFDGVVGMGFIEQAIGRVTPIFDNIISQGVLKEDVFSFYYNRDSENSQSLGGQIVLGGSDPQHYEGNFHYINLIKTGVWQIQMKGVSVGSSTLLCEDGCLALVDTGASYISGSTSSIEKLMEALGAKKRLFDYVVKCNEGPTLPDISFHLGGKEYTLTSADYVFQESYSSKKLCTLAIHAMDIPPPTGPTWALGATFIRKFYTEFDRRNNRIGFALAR
In short: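 Recombinant human renin (3 nM final) pre-incubated 10 min at 37 °C with compounds in pH 7.4 Hepes/EDTA/DTT/0.1 mg/mL BSA/Brij35 buffer (optionally plus 2% BSA), 5% DMSO final; fluorogenic QXL520/HiLyteFluo488 peptide substrate added.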

| Structure (SMILES) | IC50 [nM] |
| --- | --- |
| COCCCn1c([C@@H]2CCCN(C(=O)C[C@H](N)CNC(=O)Nc3ccccc3C(C)C)C2)nc2ccccc21 [Compound 301, 1-((S)-2-amino-4-((R)-3-(1-(3-methoxypropyl)-1H-benzo[d]imidazol-2-yl)piperidin-1-yl)-4-oxobutyl)-3-(2-isopropylphenyl)urea] | 100 to 1000 |
| COCCCn1c([C@@H]2CCCN(C(=O)C[C@H](N)CNC(=O)Nc3ccccc3C(C)(C)C)C2)nc2ccccc21 [Compound 302, 1-((S)-2-amino-4-((R)-3-(1-(3-methoxypropyl)-1H-benzo[d]imidazol-2-yl)piperidin-1-yl)-4-oxobutyl)-3-(2-tert-butylphenyl)urea] | 100 to 1000 |
| COCCCn1c([C@@H]2CCCN(C(=O)C[C@H](N)CNC(=O)c3cccc(-c4noc(C)n4)c3)C2)nc2ccccc21 [Compound 303, N-((S)-2-amino-4-((R)-3-(1-(3-methoxypropyl)-1H-benzo[d]imidazol-2-yl)piperidin-1-yl)-4-oxobuty)-3-(5-methyl-1,2,4-oxadiazol-3-yl)benzamide] | 100 to 1000 |
| COCCCn1c([C@@H]2CCCN(C(=O)C[C@H](N)CNC(=O)c3ccc(-c4ccc(F)cc4)o3)C2)nc2ccccc21 [Compound 304, N-((S)-2-amino-4-((R)-3-(1-(3-methoxypropyl)-1H-benzo[d]imidazol-2-yl)piperidin-1-yl)-4-oxobutyl)-5-(4-fluorophenyl)furan-2-carboxamide] | 100 to 1000 |
| COCCCn1c([C@@H]2CCCN(C(=O)C[C@H](N)CNS(=O)(=O)c3ccc(Cl)c(Cl)c3)C2)nc2ccccc21 [Compound 305, N-((S)-2-amino-4-((R)-3-(1-(3-methoxypropyl)-1H-benzo[d]imidazol-2-yl)piperidin-1-yl)-4-oxobutyl)-3,4-dichlorobenzenesulfonamide] | 100 to 1000 |
| COCCCn1c([C@@H]2CCCN(C(=O)C[C@H](N)CNS(=O)(=O)c3ccccc3Cl)C2)nc2ccccc21 [Compound 306, N-((S)-2-amino-4-((R)-3-(1-(3-methoxypropyl)-1H-benzo[d]imidazol-2-yl)piperidin-1-yl)-4-oxobutyl)-2-chlorobenzenesulfonamide] | 100 to 1000 |
| CCCSc1ncccc1C(=O)NC[C@@H](N)CC(=O)N1CCC[C@@H](c2nc3ccccc3n2CCCOC)C1 [Compound 307, N-((S)-2-amino-4-((R)-3-(1-(3-methoxypropyl)-1H-benzo[d]imidazol-2-yl)piperidin-1-yl)-4-oxobutyl)-2-(propylthio)nicotinamide] | 100 to 1000 |
| COCCCn1c([C@@H]2CCCN(C(=O)C[C@H](N)CNC(=O)c3ccc4c(c3)OCCO4)C2)nc2ccccc21 [Compound 308, N-((S)-2-amino-4-((R)-3-(1-(3-methoxypropyl)-1H-benzo[d]imidazol-2-yl)piperidin-1-yl)-4-oxobutyl)-2,3-dihydrobenzo[b][1,4]dioxine-6-carboxamide] | 100 to 1000 |
| COCCCn1c([C@@H]2CCCN(C(=O)C[C@H](N)CNC(=O)c3ccc(Cl)cc3)C2)nc2ccccc21 [Compound 309, N-((S)-2-amino-4-((R)-3-(1-(3-methoxypropyl)-1H-benzo[d]imidazol-2-yl)piperidin-1-yl)-4-oxobutyl)-4-chlorobenzamide] | 100 to 1000 |
| COCCCn1c([C@@H]2CCCN(C(=O)C[C@H](N)CNC(=O)c3cccc(OC)c3)C2)nc2ccccc21 [Compound 310, N-((S)-2-amino-4-((R)-3-(1-(3-methoxypropyl)-1H-benzo[d]imidazol-2-yl)piperidin-1-yl)-4-oxobutyl)-3-methoxybenzamide] | 100 to 1000 |
| COCCCn1c([C@@H]2CCCN(C(=O)C[C@H](N)CNC(=O)c3cccc4ccccc34)C2)nc2ccccc21 [Compound 311, N-((S)-2-amino-4-((R)-3-(1-(3-methoxypropyl)-1H-benzo[d]imidazol-2-yl)piperidin-1-yl)-4-oxobutyl)-1-naphthamide] | 100 to 1000 |
| COCCCn1c([C@@H]2CCCN(C(=O)C[C@H](N)CNS(=O)(=O)C(C)C)C2)nc2ccccc21 [Compound 312, N-((S)-2-amino-4-((R)-3-(1-(3-methoxypropyl)-1H-benzo[d]imidazol-2-yl)piperidin-1-yl)-4-oxobutyl)propane-2-sulfonamide] | 100 to 1000 |
| COCCCn1c([C@@H]2CCCN(C(=O)C[C@H](N)CNC(=O)c3cccc(N4CCCCC4)n3)C2)nc2ccccc21 [Compound 313, N-((S)-2-amino-4-((R)-3-(1-(3-methoxypropyl)-1H-benzo[d]imidazol-2-yl)piperidin-1-yl)-4-oxobutyl)-6-(piperidin-1-yl)picolinamide] | 100 to 1000 |
| COCCCn1c([C@@H]2CCCN(C(=O)C[C@H](N)CNC(=O)c3ccc(C(=O)OC)cc3)C2)nc2ccccc21 [Compound 314, methyl 4-((S)-2-amino-4-((R)-3-(1-(3-methoxypropyl)-1H-benzo[d]imidazol-2-yl)piperidin-1-yl)-4-oxobutylcarbamoyl)benzoate] | 100 to 1000 |
| COCCCn1c([C@@H]2CCCN(C(=O)C[C@H](N)CNS(=O)(=O)c3cccc(OC)c3)C2)nc2ccccc21 [Compound 315, N-((S)-2-amino-4-((R)-3-(1-(3-methoxypropyl)-1H-benzo[d]imidazol-2-yl)piperidin-1-yl)-4-oxobutyl)-3-methoxybenzenesulfonamide] | 100 to 1000 |
| COCCCn1c([C@@H]2CCCN(C(=O)C[C@H](N)CNS(=O)(=O)c3ccccc3)C2)nc2ccccc21 [Compound 316, N-((S)-2-amino-4-((R)-3-(1-(3-methoxypropyl)-1H-benzo[d]imidazol-2-yl)piperidin-1-yl)-4-oxobutyl)benzenesulfonamide] | 100 to 1000 |
| COCCCn1c([C@@H]2CCCN(C(=O)C[C@H](N)CNC(=O)c3ccccc3)C2)nc2ccccc21 [Compound 317, N-((S)-2-amino-4-((R)-3-(1-(3-methoxypropyl)-1H-benzo[d]imidazol-2-yl)piperidin-1-yl)-4-oxobutyl)benzamide] | 100 to 1000 |
| COCCCn1c([C@@H]2CCCN(C(=O)C[C@H](N)CNC(=O)c3cccc(F)c3)C2)nc2ccccc21 [Compound 318, N-((S)-2-amino-4-((R)-3-(1-(3-methoxypropyl)-1H-benzo[d]imidazol-2-yl)piperidin-1-yl)-4-oxobutyl)-3-fluorobenzamide] | 100 to 1000 |
| COCCCn1c([C@@H]2CCCN(C(=O)C[C@H](N)CNC(=O)CC3CCCCC3)C2)nc2ccccc21 [Compound 319, N-((S)-2-amino-4-((R)-3-(1-(3-methoxypropyl)-1H-benzo[d]imidazol-2-yl)piperidin-1-yl)-4-oxobutyl)-2-cyclohexylacetamide] | 100 to 1000 |
| COCCCn1c([C@@H]2CCCN(C(=O)C[C@H](N)CNC(=O)c3ccccc3Cl)C2)nc2ccccc21 [Compound 320, N-((S)-2-amino-4-((R)-3-(1-(3-methoxypropyl)-1H-benzo[d]imidazol-2-yl)piperidin-1-yl)-4-oxobutyl)-2-chlorobenzamide] | 100 to 1000 |
| COCCCn1c([C@@H]2CCCN(C(=O)C[C@H](N)CNS(=O)(=O)c3ccc(OC)cc3)C2)nc2ccccc21 [Compound 321, N-((S)-2-amino-4-((R)-3-(1-(3-methoxypropyl)-1H-benzo[d]imidazol-2-yl)piperidin-1-yl)-4-oxobutyl)-4-methoxybenzenesulfonamide] | 100 to 1000 |
| COCCCn1c([C@@H]2CCCN(C(=O)C[C@H](N)CNC(=O)NCCc3cc(OC)ccc3OC)C2)nc2ccccc21 [Compound 322, 1-((S)-2-amino-4-((R)-3-(1-(3-methoxypropyl)-1H-benzo[d]imidazol-2-yl)piperidin-1-yl)-4-oxobutyl)-3-(2,5-dimethoxyphenethyl)urea] | 100 to 1000 |
| COCCCn1c([C@@H]2CCCN(C(=O)C[C@H](N)CNC(=O)NC3CCCCC3)C2)nc2ccccc21 [Compound 323, 1-((S)-2-amino-4-((R)-3-(1-(3-methoxypropyl)-1H-benzo[d]imidazol-2-yl)piperidin-1-yl)-4-oxobutyl)-3-cyclohexylurea] | > 1000 |
| COCCCn1c([C@@H]2CCCN(C(=O)C[C@H](N)CNS(=O)(=O)c3ccccc3OC)C2)nc2ccccc21 [Compound 324, N-((S)-2-amino-4-((R)-3-(1-(3-methoxypropyl)-1H-benzo[d]imidazol-2-yl)piperidin-1-yl)-4-oxobutyl)-2-methoxybenzenesulfonamide] | > 1000 |
| COCCCn1c([C@@H]2CCCN(C(=O)C[C@H](N)CNC(=O)c3ccco3)C2)nc2ccccc21 [Compound 325, N-((S)-2-amino-4-((R)-3-(1-(3-methoxypropyl)-1H-benzo[d]imidazol-2-yl)piperidin-1-yl)-4-oxobutyl)furan-2-carboxamide] | > 1000 |
| COCCCn1c([C@@H]2CCCN(C(=O)C[C@H](N)CNC(=O)C3CCCCC3)C2)nc2ccccc21 [Compound 326, N-((S)-2-amino-4-((R)-3-(1-(3-methoxypropyl)-1H-benzo[d]imidazol-2-yl)piperidin-1-yl)-4-oxobutyl)cyclohexanecarboxamide] | > 1000 |
| COCCCn1c([C@@H]2CCCN(C(=O)C[C@H](N)CNC(=O)c3ccccc3OC)C2)nc2ccccc21 [Compound 327, N-((S)-2-amino-4-((R)-3-(1-(3-methoxypropyl)-1H-benzo[d]imidazol-2-yl)piperidin-1-yl)-4-oxobutyl)-2-methoxybenzamide] | > 1000 |
| COCCCn1c([C@@H]2CCCN(C(=O)C[C@H](N)CNC(=O)N3CCOCC3)C2)nc2ccccc21 [Compound 328, N-((S)-2-amino-4-((R)-3-(1-(3-methoxypropyl)-1H-benzo[d]imidazol-2-yl)piperidin-1-yl)-4-oxobutyl)morpholine-4-carboxamide] | > 1000 |
